The nature of assay [1]: Inhibition of pig kidney cytosolic leucine aminopeptidase. More on the design: species or system Sus scrofa.
Assay [2] can be described thus: Inhibition of pig kidney microsomal leucine aminopeptidase. More on the design: species or system Sus scrofa.
Assay [3] is filed under the species Sus scrofa. The assay is described as follows: Inhibition of pig kidney microsomal leucine aminopeptidase at 10 to 20 uM.

Values joined by “and” are separate entries in the source; they are usually repeats but may differ in a detail not shown here. Equal values may be shown once. Active and inactive are the calls of the source. The calls are words filed in the database; no cut-off is given here.

One may read the Ki as a measure of affinity in units of concentration, obtained from inhibition or displacement. High values mean lower affinity, low ones higher affinity. For the compound `NCc1ccc(NC(CP(=O)(O)C(N)CCc2ccccc2)C(=O)O)cc1` (stereo unspecified), the inhibition constant (Ki) was found to be 4.46 µM in assay [1] and 0.56 µM in assay [2]. In the case of `NC(CCc1ccccc1)P(=O)(O)CC(NCc1ccc(CO)cc1)C(=O)O` (stereo unspecified), in assay [1], the Ki is 4.21 µM and 1.42 µM. Moreover, in assay [3], the result was inactive.

`NC(CCc1ccccc1)P(=O)(O)CC(Nc1ccccc1)C(=O)O` (stereo unspecified): the Ki in assay [1] is 0.57 µM and 0.45 µM. In addition, the result in assay [3] was inactive.

Consider `NC(CCc1ccccc1)P(=O)(O)CC(Nc1ccc(CO)cc1)C(=O)O` (stereo unspecified), for which the Ki is 10.3 µM and 6.98 µM in assay [1]; 0.9 µM and 1.13 µM in assay [2].

As for `NC(CCc1ccccc1)P(=O)(O)CC(NCc1ccccc1)C(=O)O` (stereo in doubt; 6), the Ki in assay [1] was 12.4 µM; in assay [2], 1500 µM. Compound `NC(CCc1ccccc1)P(=O)(O)CC(NCc1ccccc1)C(=O)O` (stereo in doubt; 6,F1) [listing 1 of 2 here] came in with a Ki in assay [1] of 10.1 µM. For `NC(CCc1ccccc1)P(=O)(O)CC(NCc1ccccc1)C(=O)O` (stereo in doubt; 6,F1) [listing 2 of 2 here], in assay [3], the outcome was inactive. For the compound `NCc1ccc(CNC(CP(=O)(O)C(N)CCc2ccccc2)C(=O)O)cc1` (stereo in doubt; 8,F1), the Ki in assay [1] was determined as 2.78 µM; in assay [2], 19.9 µM. On to `NCc1ccc(CNC(CP(=O)(O)C(N)CCc2ccccc2)C(=O)O)cc1` (stereo in doubt; 8,F2), for which the Ki in assay [1] worked out at 2.62 µM; in assay [2], 2.66 µM.

These data come from ChEMBL document CHEMBL1143026, “A synthetic method for diversification of the P1' substituent in phosphinic dipeptides as a tool for exploration of the specificity of the S1' binding pockets of leucine aminopeptidases” (Bioorg Med Chem, 2007).
